This is an account of results in patent US20040151761A1, “Methods and compositions utilizing astaxanthin” (priority 2003, published 2004).

Molecules are shown by their SMILES. “Also recorded” adds a separate entry of the source.

For assay [1], the system named is cutaneous delayed-type hypersensitivity (DTH). The assay can be described thus: Delayed-type hypersensitivity (skin induration) in dogs. In kind it is in vivo, dog.
Method: Female Beagle dogs (9 to 10 mo old; 8.2±0.2 kg body weight; Covance Research Products Inc., Kalamazoo, Mich.) were randomly assigned (n=14/treatment) to be fed 0, 10, 20, or 40 mg astaxanthin (109 g astaxanthin/kg oleoresin concentrate from Haematococcus pluvialis, astraZanthin™, La Haye Laboratories, Redmond, Wash.) daily for 16 weeks. Astaxanthin was incorporated into a commercial basal diet (The Iams Co., Lewisburg, Ohio.) and fed two times daily (200 g food/d). […] Blood was collected on wk 0, 6 and 12 for assessing immune function. All dogs were vaccinated (Vanguard 5™, Smithkline Beacham, West Chester, Pa.) twice on week 12 and 14 and blood again taken on week 16 to assess post-vaccination immune responses.
On week 12 (before vaccination) and 16 (after vaccination), all dogs were injected intradermally with 100 microliters of (1) saline (8.5 g/L; negative control), (2) an attenuated polyvalent vaccine containing canine distemper virus, adenovirus type-2, parainfluenza virus and parvovirus (undiluted; Vanguard 5™, Smithkline Beacham, West Chester, Pa.), and (3) phytohemagglutinin (PHA, 0.5 g/L) as previously described (Chew et al., 2000) to assess cutaneous delayed-type hypersensitivity (DTH). Skin induration was measured at 0, 24, 48 and 72 hours post-injection.
The next assay deals with lipid peroxidation. The assay can be described thus: Lipid peroxidation in dogs. The class given is in vivo, dog.
The subject of the next assay is splenocyte. The settings on record: mice (Chew et al., 1999); cited from earlier work.
A further assay relates to IgG and IgM. The assay can be described thus: Plasma IgG and IgM in dogs (ELISA). The class given is in vivo, dog. An excerpt:
Female Beagle dogs (9 to 10 mo old; 8.2±0.2 kg body weight; Covance Research Products Inc., Kalamazoo, Mich.) were randomly assigned ([…] concentrate from Haematococcus pluvialis, astraZanthin™, La Haye Laboratories, Redmond, Wash.) daily for 16 weeks. Astaxanthin was incorporated into a commercial basal diet (The Iams Co., Lewisburg, Ohio.) and fed two times daily (200 g food/d). The diet composition was as follows (g/kg): 85.3 moisture, 275.8 protein, 60.7 ash, 115.0 fat, 9.9 Ca, 9.3 P, 21.3 crude fiber, and 18,914 kJ/kg gross energy; the n-6:n-3 fatty acid ratio was 7.9. Dogs were housed in 2×3 m pens (2 dogs/pen) in a temperature (20 to 22° C.) and light-(14 hour light) controlled facility. Body weight was recorded on week 0, 4, 8, and 16. Blood was collected on wk 0, 6 and 12 for assessing immune function. All dogs were vaccinated (Vanguard 5™, Smithkline Beacham, West Chester, Pa.) twice on week 12 and 14 and blood again taken on week 16 to assess post-vaccination immune responses.
IgG and IgM. Concentrations of IgG (sheep anti-dog IgG; sensitivity=16 micrograms/L) and IgM (goat anti-dog IgM; sensitivity=31 micrograms/L) in plasma were analyzed by ELISA using a commercial kit (Bethyl Lab., Inc., Montgomery, Tex.).

In the case of `CC1=C(/C=C/C(C)=C/C=C/C(C)=C/C=C/C=C(C)/C=C/C=C(C)/C=C/C2=C(C)C(=O)C(O)CC2(C)C)C(C)(C)CC(O)C1=O` (stereo not drawn) [astaxanthin, 3,3′-dihydroxy-beta, beta-carotene-4,4′-dione], the “time after intradermal challenge at which skin induration response was observed” value in assay [1] (before vaccination) came to 48 h; in assay [1] (post-vaccination) it was 24 h. In assay [1] (nonspecific antigen), the “DTH response to PHA” value is “No similar response was observed; also recorded: but not to PHA”. Besides, the “DTH response compared with other carotenoids previously investigated” value in assay [1] (versus β-carotene and lutein in dogs) is reported as “heightened DTH response”. Also, the “skin induration response to saline, PHA or vaccine” value in assay [1] (wk 0 and 8) was “did not significantly influence”. Also, the “DTH response to intradermal vaccine challenge” value was “significant DTH response to vaccine; also recorded: higher DTH response at 38 and 72 h; also recorded: increased delayed-type hypersensitivity (DTH) response” in assay [1] (wk 12 (before vaccination), dogs fed 10, 20 and 30 mg (10 to 40 mg)); “observed earlier (at 24 and 38 h); also recorded: similarly enhanced” in assay [1] (wk 16, after vaccination on wk 12 and 14). In addition, the lipid peroxidation result with lipid peroxidation is “reduced lipid peroxidation”. Also, the mitogen-induced splenocyte proliferation result in the assay with splenocyte is on record as “enhance mitogen-induced splenocyte proliferation”. Moreover, the “plasma IgG concentration” value in the assay on IgG and IgM (20 mg, post-vaccination week 16) is “higher; also recorded: highest concentrations of IgG and IgM”; in the assay with IgG and IgM (20 mg, week 12) it was “higher”. Moreover, in the assay on IgG and IgM (20 mg, week 16), the “plasma IgM concentration” value was “significantly higher IgM concentrations; also recorded: highest concentrations of IgG and IgM”. For the same compound, the IgG production result with IgG and IgM (higher (30 mg) dietary astaxanthin) is on record as “did not produce the same stimulation”.
